Molecular target: T1, Bcl-2-related protein A1 (Mus musculus, UniProt Q07440)
T1 sequence (Q07440 whole entry): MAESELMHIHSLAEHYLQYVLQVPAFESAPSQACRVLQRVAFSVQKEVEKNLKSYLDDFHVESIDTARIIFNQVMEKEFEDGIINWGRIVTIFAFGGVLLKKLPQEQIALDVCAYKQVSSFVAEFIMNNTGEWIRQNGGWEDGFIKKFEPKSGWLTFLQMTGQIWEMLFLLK
Assay: Bfl-1 activity inhibition – biochemical, dose response (AID 504689)

An IC50 of over 20 µM was found for `C#CCOCCOCCOCCNc1nc(N2CCN(C(=O)[C@H](CCCCN)n3cc([C@@H](N)C(C)CC)nn3)CC2)nc(N2CCN(C(=O)[C@H](Cc3ccc(O)cc3)n3cc([C@@H](N)C(C)CC)nn3)CC2)n1` (stereo not given in full) [SMR000391090] in this work.
An IC50 of over 20 µM was found for `C#CCOCCOCCOCCNc1nc(N2CCN(C(=O)[C@H](CCCCN)n3cc([C@@H](N)CC(C)C)nn3)CC2)nc(N2CCN(C(=O)[C@H](Cc3cc4ccccc4[nH]3)n3cc([C@@H](N)Cc4ccc(O)cc4)nn3)CC2)n1` [SMR000391143] in this work.
An IC50 of 11.7 µM was found for `C#CCOCCOCCOCCNc1nc(N2CCN(C(=O)[C@H](Cc3cc4ccccc4[nH]3)n3cc([C@@H](N)C(C)CC)nn3)CC2)nc(N2CCN(C(=O)[C@H](Cc3cc4ccccc4[nH]3)n3cc([C@@H](N)Cc4ccc(O)cc4)nn3)CC2)n1` (stereo not given in full) [SMR000391146] in this work.
An IC50 of over 20 µM was found for `CC1CC(C)(C)N2C(=O)/C(=N\NC(N)=S)c3cccc1c32` (stereo not given) [SMR000414933] in this work.
An IC50 of 3.44 µM was found for `CCN(CC)CCOC(=O)c1ccc(N=CC(C#N)c2nc(-c3ccc(OC)c(OC)c3)cs2)cc1` (stereo not given) [SMR000434079] in this work.
An IC50 of over 20 µM was found for `C#CCOCCOCCOCCNc1nc(N2CCN(C(=O)C([C@@H](C)CC)n3cc(C(N)COC(=O)C(F)(F)F)nn3)CC2)nc(N2CCN(C(=O)[C@H](CCCCN)n3cc(C(N)CC(C)C)nn3)CC2)n1` (stereo not given in full) [SMR000453712] in this work.
An IC50 of 13.3 µM was found for `C#CCOCCOCCOCCNc1nc(N2CCN(C(=O)CCCCCCCCCCNC(=O)Cn3cc(CCCCCN)nn3)CC2)nc(N2CCN(C(=O)CCCCCCCCCCNC(=O)Cn3cc(CCCCCN)nn3)CC2)n1` [SMR001231146] in this work.
An IC50 of 14.2 µM was found for `C#CCOCCOCCOCCNc1nc(N2CCN(C(=O)CCCCCCCCCCNC(=O)[C@H](CO)n3cc(CCCSC)nn3)CC2)nc(N2CCN(C(=O)CCCCCCCCCCNC(=O)[C@H](CCCCN)n3cc(CCO)nn3)CC2)n1` [SMR001318322] in this work.
An IC50 of over 20 µM was found for `Cc1cccc2c1C(=NNC(N)=S)C(=O)N2C1OC(CO)C(O)C(O)C1O` (stereo not given) [The compound has not trivial name.] in this work.
An IC50 of over 20 µM was found for `NC(=S)NN=C1C(=O)N(C2OC(=O)c3ccccc32)c2ccccc21` (stereo not given) [[(Z)-[2-oxo-1-(3-oxo-1H-isobenzofuran-1-yl)-3-indolylidene]amino]thiourea] in this work.

From BindingDB's records for doi:10.7270/Q25D8Q92 (Burnham Center For Chemical Genomics, 2011)
